Data from patent US7118895B2, “Process for producing aglycon by using diglycosidase and flavor-improved food containing the aglycon and converting agent to be used in the process” (Amano Enzyme Inc., priority 2000, dated 2006).

Assays:
Crude diglycosidase = assay: Examination of pH in the conversion into isoflavone aglycons by diglycosidase using soybean materials; assay type: biochemical, Penicillium multicolor IAM7153; design: Decomposition efficiency of genistin family in soymilk / Decomposition efficiency of genistin family in defatted soybean / Decomposition efficiency of daidzin family in defatted soybean: concentration or dose not given beside the values; settings: for Decomposition efficiency of daidzin family in roasted soy flour: 55° C.
In short: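 Conversion of glycosides to isoflavone aglycons was followed by HPLC after crude diglycosidase (1.88 AU/mL enzyme solution) acted at 55° C for up to 6 h on four soy materials, 50 mg each, held at pH 2–11.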

Purified diglycosidase = assay: Influence of free glucose on diglycosidase activity; assay type: biochemical, Penicillium multicolor IAM7153; settings: isolated aglycon amount at glucose 0% and 0.5 hour = 100%
[1] = pH6.6, heat treatment of enzyme: no, reaction time 0 h
[2] = pH6.6, heat treatment of enzyme: no, reaction time 1 h
[3] = pH6.6, heat treatment of enzyme: no, reaction time 3 h
[4] = pH6.6, heat treatment of enzyme: no, reaction time 6 h
[5] = pH6.6, heat treatment of enzyme: yes, reaction time 6 h

O=c1c(-c2ccc(O)cc2)coc2cc(O[C@@H]3O[C@H](CO)[C@@H](O)[C@H](O)[C@H]3O)ccc12 [daidzin]
Decomposition efficiency of daidzin family in roasted soy flour (Crude diglycosidase; pH5, heat treatment of enzyme no, reaction time 3 h): not detected | Decomposition efficiency of daidzin family in roasted soy flour (Crude diglycosidase; pH5, heat treatment of enzyme no, reaction time 6 h): not detected | Decomposition efficiency of daidzin family in roasted soy flour (Crude diglycosidase; pH5, heat treatment of enzyme yes, reaction time 6 h): 50.6 | Decomposition efficiency of daidzin family in concentrated soybean protein (Crude diglycosidase; pH5.1, heat treatment of enzyme: no, reaction time 0 h): 52.5% | Decomposition efficiency of daidzin family in concentrated soybean protein (Crude diglycosidase; pH5.1, heat treatment of enzyme: no, reaction time 1 h): not detected | Decomposition efficiency of daidzin family in concentrated soybean protein (Crude diglycosidase; pH5.1, heat treatment of enzyme: no, reaction time 3 h): not detected | Decomposition efficiency of daidzin family in concentrated soybean protein (Crude diglycosidase; pH5.1, heat treatment of enzyme: no, reaction time 6 h): not detected | Decomposition efficiency of daidzin family in concentrated soybean protein (Crude diglycosidase; pH5.1, heat treatment of enzyme: yes, reaction time 6 h): 53.4% | Decomposition efficiency of daidzin family in defatted soybean (Crude diglycosidase; pH5.4, heat treatment of enzyme: no, reaction time 0 h): 43.5% | Decomposition efficiency of daidzin family in defatted soybean (Crude diglycosidase; pH5.4, heat treatment of enzyme: no, reaction time 1 h): not detected | Decomposition efficiency of daidzin family in defatted soybean (Crude diglycosidase; pH5.4, heat treatment of enzyme: no, reaction time 3 h): not detected | Decomposition efficiency of daidzin family in defatted soybean (Crude diglycosidase; pH5.4, heat treatment of enzyme: no, reaction time 6 h): not detected | Decomposition efficiency of daidzin family in defatted soybean (Crude diglycosidase; pH5.4, heat treatment of enzyme: yes, reaction time 6 h): not detected | Decomposition efficiency of daidzin family in soymilk (Crude diglycosidase; pH6.2, heat treatment of enzyme: no, reaction time 0 h): 34.9% | Decomposition efficiency of daidzin family in soymilk (Crude diglycosidase; pH6.2, heat treatment of enzyme: no, reaction time 1 h): not detected | Decomposition efficiency of daidzin family in soymilk (Crude diglycosidase; pH6.2, heat treatment of enzyme: no, reaction time 3 h): not detected | Decomposition efficiency of daidzin family in soymilk (Crude diglycosidase; pH6.2, heat treatment of enzyme: no, reaction time 6 h): not detected | Decomposition efficiency of daidzin family in soymilk (Crude diglycosidase; pH6.2, heat treatment of enzyme: yes, reaction time 6 h): 40.6% | Decomposition efficiency of daidzin family in roasted soy flour (Crude diglycosidase; pH6.5, heat treatment of enzyme no, reaction time 0 h): 48.4 | Decomposition efficiency of daidzin family in roasted soy flour (Crude diglycosidase; pH6.5, heat treatment of enzyme no, reaction time 1 h): not detected | Decomposition efficiency of daidzin family in roasted soy flour (Crude diglycosidase; pH6.5, heat treatment of enzyme no, reaction time 3 h): not detected | Decomposition efficiency of daidzin family in roasted soy flour (Crude diglycosidase; pH6.5, heat treatment of enzyme no, reaction time 6 h): not detected | Decomposition efficiency of daidzin family in roasted soy flour (Crude diglycosidase; pH6.5, heat treatment of enzyme yes, reaction time 6 h): 51.9 | Decomposition efficiency of daidzin family in concentrated soybean protein (Crude diglycosidase; [1]): 52.1% | Decomposition efficiency of daidzin family in defatted soybean (Crude diglycosidase; [1]): 43.6% | Decomposition efficiency of daidzin family in concentrated soybean protein (Crude diglycosidase; [2]): 5.0% | Decomposition efficiency of daidzin family in defatted soybean (Crude diglycosidase; [2]): not detected | Decomposition efficiency of daidzin family in concentrated soybean protein (Crude diglycosidase; [3]): not detected | Decomposition efficiency of daidzin family in defatted soybean (Crude diglycosidase; [3]): not detected | Decomposition efficiency of daidzin family in concentrated soybean protein (Crude diglycosidase; [4]): not detected | Decomposition efficiency of daidzin family in defatted soybean (Crude diglycosidase; [4]): not detected | Decomposition efficiency of daidzin family in concentrated soybean protein (Crude diglycosidase; [5]): 55.1% | Decomposition efficiency of daidzin family in defatted soybean (Crude diglycosidase; [5]): 9.3% | Decomposition efficiency of daidzin family in soymilk (Crude diglycosidase; pH7.2, heat treatment of enzyme: no, reaction time 0 h): 34.9% | Decomposition efficiency of daidzin family in soymilk (Crude diglycosidase; pH7.2, heat treatment of enzyme: no, reaction time 1 h): not detected | Decomposition efficiency of daidzin family in soymilk (Crude diglycosidase; pH7.2, heat treatment of enzyme: no, reaction time 3 h): not detected | Decomposition efficiency of daidzin family in soymilk (Crude diglycosidase; pH7.2, heat treatment of enzyme: no, reaction time 6 h): not detected | Decomposition efficiency of daidzin family in soymilk (Crude diglycosidase; pH7.2, heat treatment of enzyme: yes, reaction time 6 h): 41.5% | Decomposition efficiency of daidzin family in defatted soybean (Crude diglycosidase; pH7.8, heat treatment of enzyme: no, reaction time 0 h): 44.7% | Decomposition efficiency of daidzin family in defatted soybean (Crude diglycosidase; pH7.8, heat treatment of enzyme: no, reaction time 1 h): 13.3% | Decomposition efficiency of daidzin family in defatted soybean (Crude diglycosidase; pH7.8, heat treatment of enzyme: no, reaction time 3 h): 10.1% | Decomposition efficiency of daidzin family in defatted soybean (Crude diglycosidase; pH7.8, heat treatment of enzyme: no, reaction time 6 h): 9.4% | Decomposition efficiency of daidzin family in defatted soybean (Crude diglycosidase; pH7.8, heat treatment of enzyme: yes, reaction time 6 h): 41.6% | Decomposition efficiency of daidzin family in roasted soy flour (Crude diglycosidase; pH8.5, heat treatment of enzyme no, reaction time 0 h): 54.1 | Decomposition efficiency of daidzin family in roasted soy flour (Crude diglycosidase; pH8.5, heat treatment of enzyme no, reaction time 1 h): 20.4 | Decomposition efficiency of daidzin family in roasted soy flour (Crude diglycosidase; pH8.5, heat treatment of enzyme no, reaction time 3 h): 13.3 | Decomposition efficiency of daidzin family in roasted soy flour (Crude diglycosidase; pH8.5, heat treatment of enzyme no, reaction time 6 h): 10.2 | Decomposition efficiency of daidzin family in roasted soy flour (Crude diglycosidase; pH8.5, heat treatment of enzyme yes, reaction time 6 h): 58.8 | Decomposition efficiency of daidzin family in concentrated soybean protein (Crude diglycosidase; pH8.6, heat treatment of enzyme: no, reaction time 0 h): 56.1% | Decomposition efficiency of daidzin family in concentrated soybean protein (Crude diglycosidase; pH8.6, heat treatment of enzyme: no, reaction time 1 h): 50.8% | Decomposition efficiency of daidzin family in concentrated soybean protein (Crude diglycosidase; pH8.6, heat treatment of enzyme: no, reaction time 3 h): 45.0% | Decomposition efficiency of daidzin family in concentrated soybean protein (Crude diglycosidase; pH8.6, heat treatment of enzyme: no, reaction time 6 h): 34.5% | Decomposition efficiency of daidzin family in concentrated soybean protein (Crude diglycosidase; pH8.6, heat treatment of enzyme: yes, reaction time 6 h): 59.1% | Decomposition efficiency of daidzin family in soymilk (Crude diglycosidase; pH11.6, heat treatment of enzyme: no, reaction time 0 h): 38.8% | Decomposition efficiency of daidzin family in soymilk (Crude diglycosidase; pH11.6, heat treatment of enzyme: no, reaction time 1 h): not detected | Decomposition efficiency of daidzin family in soymilk (Crude diglycosidase; pH11.6, heat treatment of enzyme: no, reaction time 3 h): not detected | Decomposition efficiency of daidzin family in soymilk (Crude diglycosidase; pH11.6, heat treatment of enzyme: no, reaction time 6 h): not detected | Decomposition efficiency of daidzin family in soymilk (Crude diglycosidase; pH11.6, heat treatment of enzyme: yes, reaction time 6 h): 44.6% | Isolation of isoflavone aglycons by diglycosidase in presence of glucose (Purified diglycosidase; Glucose concentration 0 %): 100% | Isolation of isoflavone aglycons by diglycosidase in presence of glucose (Purified diglycosidase; Glucose concentration 2 %): 128.1% | Isolation of isoflavone aglycons by diglycosidase in presence of glucose (Purified diglycosidase; Glucose concentration 4 %): 126% | Isolation of isoflavone aglycons by diglycosidase in presence of glucose (Purified diglycosidase; Glucose concentration 8 %): 129.1% | Isolation of isoflavone aglycons by diglycosidase in presence of glucose (Purified diglycosidase; Glucose concentration 20 %): 111.9%
